The record followed here is patent US7807702B2 (Eli Lilly and Company, priority 2005, dated 2010).

The target in this assay is T1, cloned human glucagon receptor (Homo sapiens, UniProt P47871).
T1 construct: The hGlucR cDNA is subcloned into the expression plasmid phD; expressed in transfected cells; host or cells: 293 HEK cells, hygromycin-selected; crude plasma membranes
As to the kind of experiment: Glucagon Receptor (hGlucR) Binding Assay. On the procedure:
Crude plasma membranes are prepared using cells from suspension culture. […] The second supernate is combined with the first supernate.
The specific activity is 2200 Ci/mmol.

T1 sequence (P47871 26-477): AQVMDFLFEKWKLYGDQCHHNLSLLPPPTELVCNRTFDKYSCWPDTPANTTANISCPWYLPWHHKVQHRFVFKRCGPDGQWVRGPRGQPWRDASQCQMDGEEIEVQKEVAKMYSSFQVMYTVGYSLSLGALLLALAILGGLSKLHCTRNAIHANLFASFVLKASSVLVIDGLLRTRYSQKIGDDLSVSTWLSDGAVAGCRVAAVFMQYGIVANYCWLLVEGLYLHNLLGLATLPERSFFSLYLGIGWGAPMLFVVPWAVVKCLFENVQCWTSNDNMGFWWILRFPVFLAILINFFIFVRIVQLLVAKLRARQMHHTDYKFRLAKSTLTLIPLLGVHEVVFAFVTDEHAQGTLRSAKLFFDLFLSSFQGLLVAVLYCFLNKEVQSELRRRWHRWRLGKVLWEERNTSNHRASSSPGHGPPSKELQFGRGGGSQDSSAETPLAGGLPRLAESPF

As for `CCCC(Sc1cc(C)c(-c2ccc(C(F)(F)F)cc2)c(C)c1)c1ccc(C(=O)NCc2nnn[nH]2)s1` (stereo not shown), the Ki (usually the dissociation constant of the complex between target and ligand, obtained from inhibition or displacement) was 36 nM.
